Data: PubChem BioAssay AID434946 (Broad Institute, 2010)
Activity calls are given as the source filed them.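 Rule for the calls: active = compounds lowering the growth signal with a fitted EC50 no more than tenfold above the top dose; inconclusive = flat fit with partial effect, or a poor fit; inactive = the rest.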

Tested on: NIH 3T3 fibroblast viability, Alamar Blue fluorescence, 48 h
Assay: NIH 3T3 fibroblast cytotoxicity, no fluconazole, dose response, cytotoxicity control for Candida fluconazole-potentiator project, cell-based, alamar blue fluorescence (AID 434946)

Row | SMILES | EC50
1 | O=C(Nc1sc2c(c1C(=O)c1ccc(Cl)cc1)CCCC2)c1cccnc1 | > 26 µM (inactive)
2 | O=C(Nc1nnc(-c2ccc3c(c2)CCCC3)o1)c1ccc(Cl)cc1Cl | 18.4 µM
3 | COc1cc2c(cc1NC(=O)c1ccco1)CCCC2 | > 26 µM (inactive)
4 | Clc1ccc2c(c1)C(c1cccs1)=NNC(c1cccnc1)=N2 | > 26 µM (inactive)
5 | Cc1oc2c(F)c(F)c(F)c(F)c2c1S(=O)(=O)Nc1cccc(C(F)(F)F)c1 | > 26 µM (inactive)
6 | Cc1ccc(C(=O)c2coc3c2C(=O)C(=O)c2ccccc2-3)cc1 | > 26 µM (inactive)
7 | O=C(Nc1nc(-c2ccccn2)cs1)c1ccc(Br)s1 | 11.9 µM
8 | Cc1nc2ccccc2cc1OCc1ccc(F)cc1 | > 26 µM (inactive)
9 | O=C(NNC1=C(C(=O)C(F)(F)F)CCC1)c1ccc(Cl)cc1 | > 26 µM (inactive)
10 | O=C(Nc1nnc(SCc2ccc(Cl)cc2)s1)c1ccc2ccccc2n1 | > 26 µM (inactive)
11 | Nc1nccnc1C(=O)Nc1nnc(SCc2ccc(Cl)cc2)s1 | > 26 µM (inactive)
12 | CC(C)N1CCc2c(sc(NC(=O)c3nc4ccccc4s3)c2C(N)=O)C1 | > 26 µM (inactive)
13 | CCCC(=O)NC(c1ccc(Cl)cc1)c1ccc2cccnc2c1O (configuration not stated) | 21.3 µM
14 | O=C(Nc1nnc(-c2ccco2)o1)c1ccc(Cl)cc1 | > 26 µM (inactive)
15 | CC(C)COCc1ccc(O)c2ncccc12 | 19.5 µM
16 | Cc1ccc(Nc2nc(N)c([N+](=O)[O-])c(N3CCC(C)CC3)n2)cc1C | > 26 µM (inactive)
17 | COc1ccc(-n2nc(C(=O)NCC(=O)N3CCN(c4ccccc4)CC3)c3ccccc3c2=O)c(OC)c1 | > 26 µM (inactive)
18 | Cc1ccc(C(=O)Nc2cccc(-c3cn4ccccc4n3)c2)cc1 | > 26 µM (inactive)
19 | CCc1ccc2c(c1)/C(=C/C(=O)c1cccs1)C(=O)N2 | > 26 µM (inactive)
20 | O=C1/C(=C\c2ccccc2)CCc2c1[nH]c1ccccc21 | > 26 µM (inactive)
21 | c1ccc2c(c1)OCC(CNc1ncnc3sccc13)O2 (configuration not stated) | > 26 µM (inactive)
22 | O=C(Nc1nnc(CCc2ccccc2)s1)c1ccco1 | > 26 µM (inactive)
23 | COc1ccc(-c2nnc(NC(=O)c3ccc(F)cc3)o2)cc1 | > 26 µM (inactive)
24 | Cc1ccc(/C=C/C(=O)c2ccccc(=O)c2O)cc1C | > 26 µM (inactive)
25 | CCOC(=O)N1C(=O)C2(CCCCC2)N(c2ccc(C)cc2)C1=S | 0.888 µM
26 | O=C(Oc1c(Cl)cc(Cl)c2cccnc12)c1cccs1 | 1.98 µM
27 | CCOC(=O)c1c(-c2ccccc2Cl)cn2ccccc12 | > 26 µM (inactive)
